Source: article PMC10728220, “Novel 3-(pyrazol-4-yl)-2-(1H-indole-3-carbonyl)acrylonitrile derivatives induce intrinsic and extrinsic apoptotic death mediated P53 in HCT116 colon carcinoma” (Scientific Reports, 2023)

How the values were obtained:
[1] = tested on: Bax; experiment: RT-PCR gene expression, Bax, in HCT116; type: cell-based, human; details: HCT116, 6.76 µg/mL, 48 h, relative to untreated control
Protocol: (§1) In this current research, relative gene expression related to apoptosis should be studied well because they were very interesting to understand the effect of our selected compound on this important biological process. HCT116 cells were treated with chalcone 7f (6.76µg/mL) for 48 h, and then subjected to qPCR analysis regarding control samples. The effect of chalcone 7f on the expression level of (Bax, p53, Bcl2, and CDK4) genes was assessed using the qPCR technique. […] As indicated in this schematic diagram, the expression of apoptotic genes (Bax and P53) was enhanced by the effect of chalcone 7f to reach (3.662, and 5.435) respectively, relative to the control.
(§2) Total RNA was extracted from the compound 7f-treated HCT116 cells and the untreated cells using the RNA Purification Kit GeneJET (Thermo scientific, ON, Canada) 0.1 µg of the extracted RNA was reverse transcribed into complementary DNA (cDNA) using High-Capacity cDNA Reverse Transcription Kit (Thermo Scientific, ON, Canada). qPCR was done using Brilliant SYBR Green qPCR master mix (Applied Biosystems, San Francisco, CA, USA) in One Step Plus Real-Time PCR System (Applied Biosystems, San Francisco, CA, USA). […] The relative gene expression was determined using the 2^−ΔΔCt equation after normalization to the expression of β-actin (housekeeping gene) (Qiagen, CA, USA)(10 pmol/µL)[85], [86]. […]

[2] = tested on: Bcl2; experiment: RT-PCR gene expression, Bcl2, in HCT116; type: cell-based, human; details: HCT116, 6.76 µg/mL, 48 h, relative to untreated control
Protocol: as §1, §2

## N#C/C(=C\c1cn(-c2ccccc2)nc1-c1ccc([N+](=O)[O-])cc1)C(=O)c1c[nH]c2ccccc12 [Compound 7f, (E)-2-(1H-Indole-3-carbonyl)-3-(3-(4-nitrophenyl)-1-phenyl-1H-pyrazol-4-yl)acrylonitrile]
[1]
  RT-PCR fold change Bax: 3.662 fold
[2]
  RT-PCR fold change bcl2: 0.351 fold
